In patent US6562316B1, “Drug delivery system with two-step targeting” (priority 1997, dated 2003):

Settings: PEG-stabilized DSPC/Chol/PEG(2000)-DSPE liposome formulation (40 mg/ml total lipid, 12 mg/ml WSA1); buffer and serum; 48h incubation at 37° C.
Protocol: The liposomes are loaded by use of citric acid pH-gradient. Liposomes are prepared in 500 mM citrate buffer with pH 4.0 The external medium is titrated to pH 7.7 with sodium carbonate. WSA is thereafter added and allowed to load for 20 minutes at 60° C. The final formulation contains 40 mg/ml of total lipid and 12 mg/ml of WSA1 which corresponds to about 1×10^5 WSA, or 1×10^6 10 B, per liposome.

1,8-diamino-4-N-3- [12-(N-9-acridinyl-3-aminopropyl)-p-carborane-1-yl] propyl-4-azooctane hydrogen chloride [WSA1]
encapsulated WSA 1 released: less than 15%
